One assay deals with T1, OXA-48 (Klebsiella pneumoniae, UniProt Q6XEC0).
T1 construct: purchased GenScript Biotech Co., Ltd
As to the kind of experiment: Enzyme activity test (FC5 fluorescent substrate), OXA-48. Conditions: enzyme 650 pM, substrate FC5 125 μM. Format: biochemical. The method, then: Compound stock solution: the compound was prepared as a 50 mM DMSO stock solution. […] After aliquoting, the compound stock solutions were stored at −20° C.
Preparation and storage of antibiotic substrate stock solution: antibiotic fluorescent substrate FC5 was synthesized internally and prepared as a 2 mM stock solution, which was stored at −20° C. after aliquoting.
Storage of β-lactamases: each […] was synthesized by GenScript Biotech Co., Ltd., and stored at −80° C. after aliquoting to avoid repeated freezing and thawing.
Preparation of enzyme activity reaction buffer: SBL buffer: PBS pH 7.4, 0.01% (v/v) Triton X-100; MBL buffer: 50 Mm HEPES in PBS pH 7.2, 1 μM ZnSO4, 1 μg/mL BSA, 0.010% v/v Triton X-100
a) The compound to be tested and buffer were taken out and warmed to room temperature.
b) Each compound was diluted with DMSO and buffer to the initial experimental concentration (Table 2), and then the compound was diluted 3-fold for a total of 10 concentrations.
c) Diluted compounds were added to wells 1 to 20 of a 384-well black plate at 2 replicate wells per concentration, 5 μL per well. 5 µL of DMSO was added to wells 21 to 24.
d) Each enzyme was diluted to the experimental concentration (Table 2) in SBL and MBL buffers, and finally 35 μL/well was added, with a total of 22 wells. 35 μL buffer was added to wells 23 to 24. Wells 21 to well 22 served as the maximum test values (Max), while wells 23 to 24 were designated as the minimum test values (Min).
e) The 384-well plate was centrifuged quickly and incubated for 10 minutes at room temperature.
f) The antibiotic substrate FC5 was diluted in buffer to the experimental concentration of each enzyme (Table 2).
g) The incubated 384-well plate was taken out and FC-5 was added to wells […]. The 384-well plate was centrifuged rapidly and promptly transferred to a microplate reader for reading.
h) The fluorescence intensity was measured at 355 nm excitation light/460 nm emission light in the microplate reader, and the fluorescence intensity was measured every three minutes for a total of 10 measurements.
Initial velocity of enzyme reaction V: Subtract the background reading (Min wells) without enzyme from each fluorescence intensity reading, and then perform on a linear regression analysis on each compound concentration group. The slope is the initial velocity of enzyme reaction (V) at each compound concentration.
Dose-effect curve and IC50 calculation of compounds: The initial velocity of enzyme reaction under the effect of each concentration of compounds was subjected to nonlinear regression fitting. The IC50 (half-maximal inhibitory concentration) of each compound was calculated using the formula […] (Vi: the initial velocity of enzyme reaction at each compound concentration; V0: initial velocity of enzyme reaction without the compound (Max wells). The software used was Graphpad prism 8.

Assay [1] deals with Escherichia coli ARLG 2829. Briefly: MIC test of compounds in combination with antibiotics, Escherichia coli ARLG 2829. Conditions: Escherichia coli ARLG-2829 NDM-5, OXA-1.
For assay [2], the system named is Klebsiella pneumoniae ARLG 1196. Briefly: MIC test of compounds in combination with antibiotics, Klebsiella pneumoniae ARLG 1196. The settings on record: Klebsiella pneumoniae ARLG-1196 CTM-1 group, SHV, NDM, TEM.
Description: (§1) Strain preparation: the strains to be tested were streaked from glycerol tube at −80° C. onto Mueller Hinton II Agar plates. The plates were then placed in a 37° C. incubator and cultured for 18-24 hours.
(§2) Media preparation: CAMHB (Mueller Hinton II Broth): 22 g of powder was dissolved in 1 L of purified water and sterilized at 121° C. for 10 min for use. Saline: 8.5 g NaCl was dissolved in 1 L of pure water and sterilized at 121° C. for 30 min for use.
(§3) Preparation of compound and antibiotic stock solutions: the compound and antibiotic were dissolved in DMSO or water to 12.8 mg/mL.
(§4) 2-Fold gradient dilution of antibiotics: 300 μL of CAMHVIB medium was added to columns 2-12 of a 96-deep well plate. In column 1, 24 μL of antibiotic stock solution and 576 µL of CAMHB medium were added and mixed well, with a concentration of 512 μg/mL. 300 µL of antibiotic solution was transferred from the column 1 to the second column and mixed well. The process was repeated until column 11, and the column 12 was a blank control.
(§5) Dilution of combined compounds: the compound was diluted 400-fold to 32 μg/ml with CAMHB medium.
(§6) Working solution aliquoting: 25 μL of antibiotics was aliquoted into the 96-U bottom plate with a pipette, and 25 μL of combined compound was added to each well. If antibiotics were used alone, 25 μL of CAMHB medium was added.
(§7) Inoculum solution preparation: 5-6 single colonies were selected from the plate and suspended in normal saline. The bacterial suspension was adjusted to 0.2 (i.e., 0.5 McFarland turbidity, with a bacterial concentration was about 1 to 2×10^8 CFU/mL) with a turbidity meter. The bacterial suspension was diluted 100-fold with CAMHB medium for later use.
(§8) Inoculation: 50 μL of inoculum solution was transferred to the above 50 μL compound plate with a pipette.
(§9) Culture: The 96-U bottom plate was placed in an incubator at 37° C. for 18 to 20 h.
(§10) After the incubation, bacterial growth was visually observed, and the test plate was photographed and recorded.
The test system of assay [3] is Klebsiella pneumoniae ATCC BAA-1705. Briefly: MIC test of compounds in combination with antibiotics, Klebsiella pneumoniae ATCC BAA-1705. The settings on record: Klebsiella pneumoniae ATCC BAA-1705 KPC-2.
Description: as §1, §2, §3, §4, §5, §6, §7, §8, §9, §10
Assay [4] concerns Acinetobacter baumannii ARLG-1852 OXA-23. Briefly: MIC test of compounds in combination with antibiotics, Acinetobacter baumannii ARLG-1852. The settings on record: Acinetobacter baumannii ARLG-1852 OXA-23.
Description: as §4, §5, §6, §7, §8, §9

Among the data in patent publication US20250223303A1, “TRICYCLIC BORONIC ACID DERIVATIVE, AND PREPARATION METHOD THEREFOR AND APPLICATION THEREOF” (priority 2021, published 2025) are IC50 and MIC values, retold here.

What is called IC50 is the concentration that inhibits the measured activity by half. For orientation: MIC means the lowest concentration that inhibits growth of the organism.

SMILES strings stand for the structures.

T1 sequence (Q6XEC0 23-265 limits assumed): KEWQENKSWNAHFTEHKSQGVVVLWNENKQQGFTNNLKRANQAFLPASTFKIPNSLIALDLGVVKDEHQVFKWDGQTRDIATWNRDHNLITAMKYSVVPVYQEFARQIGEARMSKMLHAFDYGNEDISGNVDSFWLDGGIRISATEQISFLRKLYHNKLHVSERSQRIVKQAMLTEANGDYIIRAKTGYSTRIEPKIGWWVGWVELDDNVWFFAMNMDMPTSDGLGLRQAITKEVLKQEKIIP

As to `NCCNC1CCC(CC(=O)N[C@H]2Cc3cccc(C(=O)O)c3OB2O)CC1` (stereo partly drawn) [VNRX-5133, reference compound], on OXA-48, the IC50 was 343 nM. Besides, the MIC in assay [1] (Cefepime + compound (8 μg/mL)) worked out at 1 µg/mL; in assay [1] (Meropenem + compound (8 μg/mL)), 1 µg/mL; in assay [2] (Cefepime + compound (8 μg/mL)), 1 µg/mL; in assay [2] (Meropenem + compound (8 μg/mL)) it was 1 µg/mL; in assay [3] (Cefepime + compound (8 μg/mL)) it was 0.25 µg/mL; in assay [3] (Meropenem + compound (8 μg/mL)), 0.125 µg/mL. The minimum inhibitory concentration (MIC) in assay [4] (Cefepime + compound (8 μg/mL)) turned out to be 32 µg/mL; in assay [4] (Meropenem + compound (8 μg/mL)), 128 µg/mL.
